Measurements from article PMC7558535, “In Vitro Metabolism of DWP16001, a Novel Sodium-Glucose Cotransporter 2 Inhibitor, in Human and Animal Hepatocytes” (Pharmaceutics, 2020).

Experiments:
Type in all cases: in vitro ADME
[1] = biological target: T1, UGT1A9 (Homo sapiens, UniProt O60656); assay: UGT screening, cDNA-expressed UGT1A9
T1 construct: purchased Corning Life Sciences
T1 sequence (O60656 26-530): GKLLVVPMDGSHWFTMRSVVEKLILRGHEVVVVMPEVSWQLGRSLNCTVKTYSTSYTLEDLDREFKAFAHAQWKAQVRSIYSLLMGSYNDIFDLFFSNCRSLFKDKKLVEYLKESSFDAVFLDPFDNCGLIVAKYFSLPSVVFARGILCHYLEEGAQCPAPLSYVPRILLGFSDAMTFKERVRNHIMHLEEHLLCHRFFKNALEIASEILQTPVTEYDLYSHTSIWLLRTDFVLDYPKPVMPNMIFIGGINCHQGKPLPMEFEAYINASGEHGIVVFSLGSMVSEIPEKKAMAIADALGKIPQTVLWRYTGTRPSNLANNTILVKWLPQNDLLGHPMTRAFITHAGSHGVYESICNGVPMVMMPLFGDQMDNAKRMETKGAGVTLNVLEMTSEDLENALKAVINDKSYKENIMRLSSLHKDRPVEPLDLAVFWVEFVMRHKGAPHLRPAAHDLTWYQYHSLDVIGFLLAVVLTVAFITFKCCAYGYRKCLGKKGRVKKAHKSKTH
Experimental: To screen for UGT enzymes responsible for glucuronidation of DWP16001, 100 μL of reaction mixtures containing 13 human cDNA-expressed UGT enzymes (1A1, 1A3, 1A4, 1A6, 1A7, 1A8, 1A9, 1A10, 2B4, 2B7, 2B10, 2B15, and 2B17) at 0.1 mg protein/mL, 5 mM UDPGA, 0.025 mg/mL alamethicin, and 25 μM DWP16001 or M1 in 50 mM Tris buffer (pH 7.4) were incubated at 37 °C for 30 min in triplicate. Reactions were stopped by adding 100 μL of ketoconazole (internal standard, 200 ng/mL) in acetonitrile, followed by vortex-mixing and centrifugation (15,000× g, 8 min, 4 °C). The supernatant (75 μL) was diluted with equal volume of 30% acetonitrile and aliquots (5 μL) were injected into an LC-MS/MS system.

[2] = tested on: human liver microsomes; assay: Enzyme kinetics of metabolite formation in human liver microsomes
Experimental: To calculate the enzyme kinetic parameters for the M1 and M2 formation from DWP16001, DWP16001 (final concentrations, 1–200 μM) was incubated with NADPH-generating system, pooled human liver microsomes (0.25 mg/mL), or human cDNA-expressed CYP3A4 or CYP2C19 supersomes (10 pmol) at 37 °C for 30 min in triplicate. Reactions were stopped by addition of 400 μL of ice-cold ketoconazole (200 ng/mL) in acetonitrile. Following vortex-mixing and centrifugation (15,000× g, 8 min, 4 °C), 75 μL aliquots of the supernatant were diluted with 75 µL of 30% acetonitrile; 5 μL aliquots were injected into an LC−MS/MS system.
Apparent kinetic parameters (Km, Vmax and n) for the formation of M1, M2, and M3 from DWP16001 by human liver microsomes, CYP3A4, or CYP2C19 were calculated as follows: the unweighted formation rates of M1, M2, and M3 over a range of DWP16001 concentrations were fitted to the Hill equation model [V = Vmax × S^n/(Km^n + S^n)] or the single enzyme model [V = Vmax × S/(Km + S)] using Enzyme Kinetics software (version 1.1 SPSS Inc., Chicago, IL, USA). In the above equations, V means the reaction velocity of the formation of M1, M2, and M3 at given concentration [S] of DWP16001, Vmax means the maximum reaction velocity, n means the Hill constant, and Km means the DWP16001 concentration at which the reaction velocity is 50% of Vmax.

[3] = biological target: T2, CYP3A4 (Homo sapiens, UniProt P08684); assay: CYP screening, recombinant CYP3A4
T2 construct: purchased Corning Life Sciences
T2 sequence (P08684 whole entry): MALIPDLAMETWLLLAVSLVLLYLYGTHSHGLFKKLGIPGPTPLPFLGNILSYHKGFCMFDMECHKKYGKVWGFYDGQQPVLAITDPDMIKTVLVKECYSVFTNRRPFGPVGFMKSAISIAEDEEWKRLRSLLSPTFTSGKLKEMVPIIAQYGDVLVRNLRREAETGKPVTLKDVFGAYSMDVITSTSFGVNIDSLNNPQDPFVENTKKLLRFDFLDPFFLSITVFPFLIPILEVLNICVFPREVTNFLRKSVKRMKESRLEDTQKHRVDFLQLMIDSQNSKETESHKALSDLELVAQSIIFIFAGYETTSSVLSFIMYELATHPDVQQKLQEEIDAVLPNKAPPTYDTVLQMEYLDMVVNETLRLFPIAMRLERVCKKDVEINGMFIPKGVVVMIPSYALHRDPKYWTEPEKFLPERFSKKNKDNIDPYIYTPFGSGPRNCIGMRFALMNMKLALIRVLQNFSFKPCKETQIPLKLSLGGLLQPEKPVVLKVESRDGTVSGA
Experimental: DWP16001, M1, or M2 was incubated with 11 human cDNA-expressed CYP enzymes (1A1, 1A2, 2A6, 2B6, 2C8, 2C9, 2C19, 2D6, 2E1, 3A4, and 3A5) to identify the CYP enzymes involved in the metabolism of DWP16001. Reaction mixtures of 95 µL containing DWP16001 (final concentration: 5 µM), M1 or M2 (final concentration: 10 µM), and CYPs (final amount: 10 pmol) were prepared in 0.1 M potassium phosphate buffer (pH 7.4). The reaction was started by adding 5 µL of NADPH-generating system; the mixtures were incubated for 30 min at 37 °C in triplicate. Reactions were stopped by the addition of 400 µL of ice-cold ketoconazole (internal standard, 200 ng/mL) in ice-cold acetonitrile. Samples were centrifuged at 15,000× g for 8 min at 4 °C. Seventy-five microliter aliquots of the supernatants were diluted with 75 µL of deionized water and analyzed using an LC–MS/MS system.

## OC[C@H]1O[C@@H](c2cc(Cc3ccc(C4CC4)cc3)c(Cl)c3c2CCO3)[C@H](O)[C@@H](O)[C@@H]1O [DWP16001, (2S,3R,4R,5S,6R)-2-(7-chloro-6-(4-cyclopropylbenzyl)-2,3-dihydrobenzofuran-4-yl)-6-(hydroxymethyl)tetrahydro-2H-pyran-3,4,5-triol]
[1]
  Substrate of UGT1A9: substrate
[2]; HLM
  M1 Formation Vmax: 980.3 pmol/min/mg protein
  M1 Formation n (hill coefficient): 0.9176
  M2 Formation Vmax: 82.8 pmol/min/mg protein
  M2 Formation n (hill coefficient): 0.9773
[2]; HLM, kinetic model fitted
  M1 Formation Mode: Hill
  M2 Formation Mode: Hill
[2]; human liver microsomes
  M3 formation from DWP16001 in enzyme kinetic analysis: not detected
[3]
  Substrate of CYP3A4: substrate
